# Measured values: patent publication US20200179392A1, “Idelalisib for Treating Proliferative Vitreoretinopathy and Abnormal Intraocular Neovascularization” (priority 2016, published 2020)
# What was measured:
# [1] = test system: PVR induced by RPEM cells; assay: Experimental PVR in rabbits; assay type: in vivo, rabbit
# Procedure: PVR was induced in the right eyes of two to three-month-old Dutch Belted pigmented rabbits. Briefly, one week after gas vitrectomy, rabbits were intravitreally injected with platelet-rich plasma (PRP, 0.1 ml) and RPEM cells (300,000 cells) supplemented with either idelalisib (10 μM) or its vehicle (0.1% DMSO). Subsequently, the rabbits were examined at the indicated times and PVR stage was evaluated using a double blind approach with an indirect ophthalmoscope through a 30D lens, and then the PVR status for each rabbit was plotted (4A). The […] values are indicated at the top of the figure after a Mann-Whitney analysis. Representative rabbits on day 28 were examined by eletroretinography (ERG) (4B), optical coherence tomography (OCT) (4C) and histological analysis by hematoxylin & eosin stain (4D). The numbers in C and D (0, 2, 3, and 5) denote PVR stages in the examined rabbits. Single arrow points to the retina and double arrows point to cellular fibrotic membranes (4C). Arrowhead and double arrows indicate cellular membranes (4D).
# As previously described^1, 55, PVR was induced in right eyes of two-three months old Dutch Belted rabbits purchased from Covance (Denver, Pa.). Briefly, a gas vitrectomy was performed by injecting 0.1 ml of perfluoropropane (C3F8) (Alcon, Fort Worth, Tex.) into the vitreous cavity 4 mm posterior to the corneal limbus. […]
# activation of Akt = assay: VEGF-induced activation of Akt; assay type: cell-based
# RPEM cells [2] = assay: Collagen contraction assay, RPEM cells with vitreous; assay type: cell-based, human; details: idelalisib 5 μM, 48 hours
# Procedure: 3D. The RPEM cells were re-suspended in 1.5 mg/ml of neutralized collagen I at a density of 1×10^6 cells/ml and seeded into wells of a 24-well plate. The solidified gels were overlaid with either DMEM/F12 alone (-), or RV supplemented with idelalisib (5 μM) or its vehicle as indicated. After 48 hours the gel diameter was measured and the gel area were calculated. A photograph of a representative experiment is shown at the bottom of the bar graphs. The mean±standard deviation (SD) of three independent experiments is shown; * denotes […]<0.05 using an unpaired t-test. RPEM cells were re-suspended in 1.5 mg/ml of neutralized collagen […], Fremont, Calif.) (pH 7.2) at ice at a density 1×10^6 cells/ml^24, 54. The mixture was transferred into wells of 24-well plates that had been preincubated overnight with 5 mg/ml bovine serum albumin/PBS. After the collagen had polymerized at 37° C. for 90 minutes, 0.5 ml DMEM/F12 or RV (1:2 dilution in DMEM/F12) with or without idelalisib (5 μM) was added. On day 3, the gel diameter was measured and the gel area was calculated using a formula 3.14×r^2, where r is the radius of the gel. At least three independent experiments were performed^24, 55.
# activation of Erk = assay: Western blot of vitreous-induced Erk activation in RPEM cells; assay type: cell-based, human; details: idelalisib 10.0 μM (selective dose for PI3Kδ)
# Procedure: 1B. After growth factor-deprivation, the RPEM cells were pretreated with idelalisib at indicated concentrations, or its vehicle for 30 minutes, and then treated with normal rabbit vitreous diluted (1:2) in DMEM (RV), V: vehicle (0.1% dimethyl sulfoxide) or PDGF-B (10 ng/ml). After the treatment for 30 minutes at 37° C., their lysates were subjected to a western blot analysis using the indicated antibodies. This is representative of three independent experiments. Cells grown to 90% confluence in wells of 24-well plates were serum starved for 24 hours, and then treated with appropriated agents. After two washes with ice-cold phosphate buffered saline (PBS), the cells were lysed in 1× sample buffer diluted with protein extraction buffer (10 mM Tris-HCl, pH 7.4; 5 mM […] (EDTA), 50 mM NaCl, 50 mM NaF, 1% Triton X-100, 20 μg/ml aprotinin, 2 mM Na3VO4, 1 mM phenylmethylsulfonyl fluoride] from 5× sample buffer [25 mM EDTA, 10% sodium dodecyl sulfate (SDS), 500 mM dithiothreitol (DTT), 50% sucrose, 500 mM Tris.HCl (pH=6.8), 0.5% bromophenol blue). The samples were boiled for 5 minutes and then centrifuged for 5 minutes at 13,000×g, 4° C. […] Signal intensity was determined by densitometry using NIH imageJ software^24, 44, 50.
# RPEM cells [3] = assay: Cell apoptosis (survival) assay, RPEM cells with vitreous; assay type: cell-based, human; details: idelalisib 5 μM, 48 hours, Annexin V/PI FACS
# Procedure: 3B. After RPEM cells reached 80% confluence in 60-mm dishes, the cultured medium was changed to either 3 ml DMEM/F12 or RV supplemented with idelalisib (5 μM) or its vehicle (0.1% dimethyl sulfoxide: DMSO). 48 hours later, the detached cells were washed with phosphate-buffer saline (PBS) and stained with fluorescein isothiocyanate (FITC)-conjugated Annexin V and propidium iodide (PI) and then analyzed by fluorescence-activated cell sorting (FACS). A representative raw data of three experiments below the bar graphs is shown. RPEM cells were seeded into 6 cm-dishes at a density of 2×10^5 cells per dish in DMEM/F12+10% FBS. Following attachment, the cells were treated with DMEM/F12 or RV (1:2 dilution in DMEM/F12) with or without idelalisib ([…]). On day 3, the cells were stained with fluorescein isothiocyanate (FITC)-conjugated annexin V and propidium iodide (PI) following the manufacturer's instructions (BD Biosciences, Palo Alto, Calif.). The cells were analyzed by flow cytometry in a Coulter Beckman XL instrument. At least three independent experiments were performed^24, 44.
smiles,measurement,setting,value
CC[C@H](Nc1ncnc2[nH]cnc12)c1nc2cccc(F)c2c(=O)n1-c1ccccc1 [idelalisib],rabbits developing to PVR stage 3,[1]; idelalisib 10 μM intravitreal with PRP and RPEM cells,one of nine
same,effect on pathogenesis of PVR,"[1]; idelalisib 10 μM intravitreal, days 7, 14, 21 and 28, Mann-Whitney",significantly suppressed
same,effect on VEGF-induced activation of Akt,activation of Akt,able to block
same,effect on vitreous-induced collagen contraction of RPEM cells,RPEM cells [2],completely blocked
same,inhibition of vitreous-induced activation of Erk,activation of Erk,neither inhibited
same,effect on vitreous-induced survival of RPEM cells,RPEM cells [3],prevented
